Assay [1] deals with T1, brain KIAA1363 (Mus musculus, UniProt Q8BLF1).
T1 construct: ABPP analysis of KIAA1363 activity in mouse brain membrane proteome; from tissue; host or cells: mouse brain (membrane fraction)
T1 sequence (Q8BLF1 1-408): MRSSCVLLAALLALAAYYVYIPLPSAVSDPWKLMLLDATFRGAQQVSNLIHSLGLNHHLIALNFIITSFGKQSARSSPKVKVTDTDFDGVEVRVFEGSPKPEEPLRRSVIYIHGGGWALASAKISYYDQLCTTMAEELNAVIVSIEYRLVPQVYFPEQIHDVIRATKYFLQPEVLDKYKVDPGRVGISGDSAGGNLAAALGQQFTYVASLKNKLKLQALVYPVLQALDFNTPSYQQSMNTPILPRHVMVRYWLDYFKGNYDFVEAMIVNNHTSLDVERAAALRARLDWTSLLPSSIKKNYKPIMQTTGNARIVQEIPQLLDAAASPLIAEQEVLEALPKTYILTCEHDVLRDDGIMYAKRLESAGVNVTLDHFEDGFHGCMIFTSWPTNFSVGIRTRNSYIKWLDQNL
The assay is described as follows: Competitive ABPP of brain proteomes from inhibitor-treated mice. The assay is classed as in vivo. The protocol: Tissues were Dounce-homogenized in PBS, pH 7.4, followed by a low-speed spin (1,400 g, 5 min) to remove debris. The supernatant was then subjected to centrifugation (100,000×g, 45 min) to provide the cytosolic fraction in the supernatant and the unsoluble fraction as a pellet. The pellet was washed and resuspended in PBS buffer by sonication. Total protein concentration in each fraction was determined using a protein assay kit (Bio-Rad). Samples were stored at −80° C. until use.
(§1) For ABPP experiments, cell lysate and tissue proteomes were treated with 1 μM FP-rhodamine for 30 min at room temperature (50 μL total reaction volume) as described previously (Nomura et al., 2010). Reactions were quenched with one volume of standard 4×SDS/PAGE loading buffer (reducing), separated by SDS/PAGE (10% acrylamide), and visualized in-gel with a Hitachi FMBio IIe flatbed fluorescence scanner (MiraiBio). Inhibitors were preincubated prior (30 min or 4 h at 37° C. in vitro or in situ, respectively) to the addition of FP-rhodamine.
JW480 was administered by oral gavage (in PEG300, 4 μL/g mouse) or intraperitoneally (in 18:1:1 v/v/v solution of saline:ethanol:emulphor, 10 μL/g). After the indicated amount of time, mice were anesthetized with isoflurane and killed by decapitation. Tissues were removed and then flash frozen in liquid N2. Tissues were stored at −80° C. until use. Animal experiments were conducted in accordance with the guidelines of the institutional Animal Care and Use Committee of The Scripps Research Institute.

The target of assay [2] is T2, KIAA1363 (Homo sapiens, UniProt Q6PIU2).
T2 sequence (Q6PIU2 1-408): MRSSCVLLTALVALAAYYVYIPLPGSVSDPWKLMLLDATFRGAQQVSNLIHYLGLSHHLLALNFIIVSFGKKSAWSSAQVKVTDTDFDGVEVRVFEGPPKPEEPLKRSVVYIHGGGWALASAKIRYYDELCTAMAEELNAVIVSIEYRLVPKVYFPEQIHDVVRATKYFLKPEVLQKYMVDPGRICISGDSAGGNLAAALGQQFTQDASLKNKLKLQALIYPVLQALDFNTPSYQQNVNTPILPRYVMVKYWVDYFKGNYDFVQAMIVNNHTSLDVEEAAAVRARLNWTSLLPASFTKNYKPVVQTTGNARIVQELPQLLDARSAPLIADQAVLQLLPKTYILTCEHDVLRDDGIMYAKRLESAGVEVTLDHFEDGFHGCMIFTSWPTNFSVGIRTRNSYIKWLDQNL
As to the kind of experiment: Gel-based competitive ABPP of living PC3 cells, in situ treatment. The note with it: for IC50: in situ treatment. The assay is classed as cell-based. Further details: PC3 cancer cells, which have high endogenous KIAA1363 levels; endogenous in cells; host or cells: PC3. Here is the method: Inhibitors were dissolved in DMSO and diluted into media or buffer prior to cell or proteome treatment, respectively. For in vitro treatment, final DMSO concentration was 4%. For in situ treatments of cells for ABPP, lipid measurements, migration, cell-survival, and invasion assays, 2×10^6 cells were seeded in 6 cm dishes (˜100% confluency) 24 h prior to inhibitor pre-treatment (in DMSO at 0.1% final concentration) in serum-free media (3 mL) for the designated time before harvesting cells for ABPP or lipid measurements or before the initiation of migration, cell-survival, and invasion assays.
as §1
JW576 was dissolved in DMSO and diluted into media or buffer prior to cell or proteome treatment, respectively. For in vitro treatment, final DMSO concentration was 4%. For in situ treatments of cells for ABPP, 2×10^6 cells were seeded in 6 cm dishes (100% confluency) 24 hr prior to JW576 pretreatment with or without JW480 (in DMSO at 0.1% final concentration) in serum-free media (3 ml) for the designated time before harvesting cells for ABPP.
For ABPP experiments, cell lysate and tissue proteomes were treated with 1 μM FP-rhodamine for 30 min at room temperature ([…]). Reactions were quenched with one volume of standard 4×SDS/PAGE loading buffer (reducing), separated by SDS/PAGE (10% acrylamide), and visualized in-gel with a Hitachi FMBio IIe flatbed fluorescence scanner (MiraiBio). For experiments involving a preincubation with JW576 in the presence or absence of the non-fluorescent competitor JW480, the reactions were prepared without FP-rhodamine. JW576 were added at the indicated concentration and incubated for the indicated time at 37° C. FP-rhodamine was then added and the reaction was carried out exactly as described above.

As a reminder, the IC50 is the concentration needed to halve the response being measured.

The structures appear in SMILES notation. Like-named read-outs stand apart in the source and are kept apart here.

`CC(C)c1ccccc1OC(=O)NCCc1ccc2ccccc2c1` [JW480, 2-isopropylphenyl (2-(naphthalen-2-yl)ethyl)carbamate]: the “Selectivity for KIAA1363 in brain proteomes from treated mice (gel-based ABPP)” value in assay [1] (1-80 mg/kg, i.p. or oral, 4 hr) is given as “excellent selectivity”. For the same compound, the “Dose required to completely inactivate brain KIAA1363 in SCID mice” value in assay [1] (immunedeficient SCID mouse strain, oral) worked out at 80 mg/kg. Further, the “Dose giving complete inhibition of brain KIAA1363, i.p.” value in assay [1] (mice, i.p., 4 hr) worked out at 5 mg/kg. For the same compound, the “Dose giving complete inhibition of brain KIAA1363, oral” value in assay [1] (normal mice, oral, 4 hr) came to 20 mg/kg. Further, the “Duration of KIAA1363 inhibition in vivo” value in assay [1] (single administration 20 mg/kg, oral) was “up to 24 hr”. For the same compound, the “Duration of in situ inhibition of KIAA1363” value in assay [2] (JW480 1 μM, PC3 cells) was “at least 48 hr”. The IC50 in assay [2] (PC3 cells, read-out: IC50 for KIAA1363, in situ (FIG. 3B)) is 6 nM; in assay [2] (presence or absence of 10% fetal calf serum, read-out: IC50 for KIAA1363 in living PC3 cells), 6 to 12 nM.
